Among the data in ChEMBL document CHEMBL3407379, “Novel sesquiterpenes from Schisandra grandiflora: isolation, cytotoxic activity and synthesis of their triazole derivatives using "click" reaction” (Eur J Med Chem, 2015) are IC50 values, retold here.

The structures appear in SMILES notation.

One test has as its system HeLa. Description: Cytotoxicity against human HeLa cells assessed as cell viability after 48 hrs by MTT assay. The format is functional, cell-based. (In general: Tetrazolium dyes change colour on reduction, which living cells bring about.)
The test system of a further test is A549. Briefly: Cytotoxicity against human A549 cells assessed as cell viability after 48 hrs by MTT assay. The format is functional, cell-based. The conditions noted are these: A549, 48 h.
The test system of another test is DU-145. Briefly: Cytotoxicity against human DU145 cells assessed as cell viability after 48 hrs by MTT assay. The conditions noted are these: DU-145, 48 h. The format is functional, cell-based.
Another test concerns MCF7. Description: Cytotoxicity against human MCF7 cells assessed as cell viability after 48 hrs by MTT assay. The format is functional, cell-based. The conditions noted are these: MCF7, 48 h.
A further test concerns B16. Briefly: Cytotoxicity against mouse B16 cells assessed as cell viability after 48 hrs by MTT assay. The format is functional, cell-based. The conditions noted are these: B16, 48 h.
For a further test, the system named is HEK293. Briefly: Cytotoxicity against HEK293 cells assessed as cell viability after 48 hrs by MTT assay. The conditions noted are these: Homo sapiens, HEK293, 48 h. In kind it is cell-based.

Consider `CC1(C)CCCC23C=C[C@](C)(CC[C@@]12C)OO3`, for which the concentration for half-maximal inhibition (IC50) (in general, the midpoint of a concentration-inhibition curve) in the test with HeLa turned out to be 122 µM; in the test on A549, 94.8 µM; in the test on DU-145 it was 114 µM; in the test with MCF7, 129 µM; in the test with B16, 343 µM; with HEK293, 480 µM.

With `C=C1CC[C@@H](C(C)C)[C@]12CC=C(C=O)CC2`, the IC50 with HeLa was 269 µM; in the test on A549, 170 µM; in the test with DU-145 it was 165 µM; in the test with MCF7 it was 210 µM; with B16 it was 428 µM; in the test on HEK293 it was 550 µM.

Turning to `C=C1CCC[C@]2(C)CCC(C=O)=CC[C@@]12C`, the half-maximal inhibitory concentration (IC50) in the test with HeLa is 190 µM; with A549 it was 145 µM; in the test on DU-145, 152 µM; in the test on MCF7, 319 µM; in the test on B16 it was 230 µM; in the test with HEK293, 734 µM.

As for `CC1(C)CCCC2=CC=C(C=O)CC[C@]21C`, the IC50 with HeLa turned out to be 163 µM; in the test on A549, 138 µM; with DU-145, 191 µM; in the test with MCF7, 166 µM; in the test on B16, 145 µM; with HEK293, 696 µM.

`CC1(C)CCC[C@]1(C)c1ccc(C=O)cc1`: the IC50 in the test with HeLa stood at 252 µM; in the test on A549, 216 µM; with DU-145, 260 µM; in the test with MCF7 it was 202 µM; in the test on B16 it was 257 µM; with HEK293 it was 771 µM.

Regarding `C#CC1=CC[C@@]2(C)C(=C)CCC[C@]2(C)CC1`, the IC50 turned out to be 158 µM in the test on HeLa; 148 µM in the test with A549; 386 µM with DU-145; 575 µM in the test with MCF7; 507 µM with B16; 524 µM in the test on HEK293.

In the case of `C#CC1=CC[C@]2(CC1)C(=C)CC[C@H]2C(C)C`, the 50% inhibitory concentration (IC50) is 97.6 µM with HeLa; 103 µM with A549; 121 µM in the test on DU-145; 135 µM in the test on MCF7; 123 µM in the test with B16; 740 µM in the test with HEK293.

Regarding `C=C1CCC[C@]2(C)CCC(c3cn(-c4ccc(OC)cc4)nn3)=CC[C@@]12C`, the IC50 amounted to 43.6 µM in the test with HeLa; 34.6 µM with A549; 58.9 µM with DU-145; 118 µM in the test on MCF7; 209 µM with B16; 410 µM in the test on HEK293.

Take `C=C1CCC[C@]2(C)CCC(c3cn(-c4ccc(C(C)=O)cc4)nn3)=CC[C@@]12C`: the 50% inhibitory concentration (IC50) was 15.1 µM in the test on HeLa; 46.4 µM with A549; 51.7 µM in the test on DU-145; 65.4 µM in the test on MCF7; 61 µM with B16; 520 µM in the test on HEK293.

For the compound `C=C1CCC[C@]2(C)CCC(c3cn(-c4cccc([N+](=O)[O-])c4)nn3)=CC[C@@]12C`, the IC50 in the test on HeLa worked out at 31.9 µM; in the test with A549, 24.7 µM; in the test on DU-145, 62.5 µM; in the test on MCF7, 40.3 µM; in the test on B16 it was 31.7 µM; in the test on HEK293 it was 699 µM.

In the case of `C=C1CCC[C@]2(C)CCC(c3cn(-c4ccc(I)cc4)nn3)=CC[C@@]12C`, the IC50 in the test with HeLa stood at 144 µM; with A549, 137 µM; in the test on DU-145, 145 µM; in the test on MCF7, 162 µM; in the test with B16, 144 µM; in the test on HEK293, 215 µM.

Consider `C=C1CCC[C@]2(C)CCC(c3cn(-c4ccccc4C(C)=O)nn3)=CC[C@@]12C`, for which the IC50 with HeLa was 55.7 µM; in the test with A549, 37.6 µM; with DU-145, 48.5 µM; in the test with MCF7 it was 29.9 µM; in the test with B16, 42.2 µM; in the test with HEK293, 524 µM.

Take `C=C1CCC[C@]2(C)CCC(c3cn(CC(=O)Nc4ccc(C)cc4)nn3)=CC[C@@]12C`: the IC50 came out at 131 µM in the test on HeLa; 270 µM in the test with A549; 254 µM in the test with DU-145; 80.1 µM in the test on MCF7; 210 µM in the test with B16; 622 µM in the test with HEK293.

For `C=C1CCC[C@]2(C)CCC(c3cn(-c4cccc(OC)c4)nn3)=CC[C@@]12C`, the IC50 with HeLa was determined as 27.9 µM; in the test on A549, 11.2 µM; in the test on DU-145 it was 38.9 µM; in the test on MCF7 it was 56.2 µM; in the test on B16, 34.6 µM; in the test with HEK293, 734 µM.

In the case of `C=C1CCC[C@]2(C)CCC(c3cn(-c4ccc(Cl)cc4)nn3)=CC[C@@]12C`, the IC50 in the test on HeLa worked out at 18.8 µM; in the test on A549 it was 20.1 µM; in the test on DU-145, 26 µM; in the test with MCF7 it was 35.1 µM; with B16, 27.2 µM; with HEK293, 609 µM.

Take `C=C1CCC[C@]2(C)CCC(c3cn(-c4ccc(C)cc4)nn3)=CC[C@@]12C`: the IC50 in the test on HeLa stood at 69.1 µM; with A549 it was 58.8 µM; with DU-145, 132 µM; with MCF7, 54.9 µM; with B16 it was 57.6 µM; in the test on HEK293, 524 µM.

For `C=C1CCC[C@]2(C)CCC(c3cn(CC(=O)Nc4ccccc4)nn3)=CC[C@@]12C`, the IC50 turned out to be 62.9 µM in the test with HeLa; 72.2 µM in the test on A549; 146 µM in the test with DU-145; 148 µM in the test with MCF7; 148 µM in the test on B16; 491 µM in the test with HEK293.

As to `C=C1CCC[C@]2(C)CCC(c3cn(-c4cc(OC)c(OC)cc4OC)nn3)=CC[C@@]12C`, the IC50 with HeLa was 45 µM; in the test with A549 it was 32.6 µM; in the test with DU-145, 49.4 µM; with MCF7, 41.1 µM; with B16, 47.2 µM; in the test with HEK293, 334 µM.

In the case of `C=C1CC[C@@H](C(C)C)[C@]12CC=C(c1cn(CC(=O)Nc3ccc(C)cc3)nn1)CC2`, the IC50 is 54.1 µM with HeLa; 31.7 µM in the test with A549; 44.5 µM with DU-145; 142 µM with MCF7; 195 µM in the test on B16; 303 µM with HEK293.

As to `C=C1CC[C@@H](C(C)C)[C@]12CC=C(c1cn(-c3cc(OC)c(OC)cc3OC)nn1)CC2`, the IC50 with HeLa came to 37.4 µM; in the test on A549 it was 20.5 µM; in the test on DU-145, 29.7 µM; in the test on MCF7, 44 µM; in the test on B16 it was 29.1 µM; with HEK293, 509 µM.

For `C=C1CC[C@@H](C(C)C)[C@]12CC=C(c1cn(-c3ccc(OC)cc3)nn1)CC2`, the IC50 was found to be 54.9 µM with HeLa; 43.6 µM with A549; 65.1 µM in the test on DU-145; 63.1 µM in the test with MCF7; 107 µM with B16; 388 µM in the test with HEK293.

As to `COc1cccc2c1C(=O)c1c(O)c3c(c(O)c1C2=O)C[C@@](O)(C(=O)CO)C[C@@H]3O[C@H]1C[C@H](N)[C@H](O)[C@H](C)O1` [DOXORUBICIN], the IC50 with HeLa was determined as 3.57 µM; with DU-145, 5.3 µM; with MCF7 it was 2.24 µM; in the test on B16, 2.78 µM.
